Source: patent US20090203577A1 (EXELIXIS, INC., priority 2005, published 2009)
≈ marks a conversion by molar mass, not a printed value.

Legend:
[1] = target: T1, human farnesoid X receptor (Homo sapiens, UniProt Q96RI1); assay: FXR in vitro assays (farnesoid X receptor/ECREx7 co-transfection assay, TR-FRET assay), Table I; type: cell-based; details: for EC50: agonist activity, one or more of the in vitro assays, read-out: EC50; for Emax: read-out: % Efficacy
T1 construct: CMX-farnesoid X receptor (full length human farnesoid X receptor); expressed in transfected cells; host or cells: CV-1 African Green Monkey Kidney cells
T1 sequence (Q96RI1 1-472 isoform Q96RI1-2): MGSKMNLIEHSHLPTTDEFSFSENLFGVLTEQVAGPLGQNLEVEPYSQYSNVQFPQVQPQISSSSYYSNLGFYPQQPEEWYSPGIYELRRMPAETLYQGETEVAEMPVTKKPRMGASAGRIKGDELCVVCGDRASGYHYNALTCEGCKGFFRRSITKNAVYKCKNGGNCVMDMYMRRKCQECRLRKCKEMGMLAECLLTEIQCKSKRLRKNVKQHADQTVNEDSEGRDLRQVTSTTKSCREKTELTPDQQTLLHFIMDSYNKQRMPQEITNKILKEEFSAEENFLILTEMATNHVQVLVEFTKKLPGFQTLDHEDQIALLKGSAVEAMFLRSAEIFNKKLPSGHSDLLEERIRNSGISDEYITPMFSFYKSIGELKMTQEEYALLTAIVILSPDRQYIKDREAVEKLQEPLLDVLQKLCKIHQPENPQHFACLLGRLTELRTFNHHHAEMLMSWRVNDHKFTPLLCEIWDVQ
T1 sequence (P19793 1-462 partner): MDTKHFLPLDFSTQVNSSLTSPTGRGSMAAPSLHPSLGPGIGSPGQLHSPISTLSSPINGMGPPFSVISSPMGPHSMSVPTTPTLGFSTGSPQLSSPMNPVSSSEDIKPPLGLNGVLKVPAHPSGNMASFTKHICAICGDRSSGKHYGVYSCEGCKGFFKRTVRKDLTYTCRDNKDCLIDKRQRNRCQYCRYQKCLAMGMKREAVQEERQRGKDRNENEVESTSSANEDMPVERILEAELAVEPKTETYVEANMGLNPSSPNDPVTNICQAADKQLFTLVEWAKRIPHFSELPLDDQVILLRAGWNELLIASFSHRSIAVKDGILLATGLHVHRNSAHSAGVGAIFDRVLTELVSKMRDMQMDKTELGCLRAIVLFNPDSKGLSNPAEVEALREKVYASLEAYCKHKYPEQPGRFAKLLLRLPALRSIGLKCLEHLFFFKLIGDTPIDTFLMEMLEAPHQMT
Procedure, shortened: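 CV-1 monkey kidney cells transfected for an FXR/ECREx7 luciferase co-transfection reporter; luciferase read 18-20 h later in lysates. 8-point dose-response at ½-log spacing, 4 wells per point; EC50/IC50 from four-parameter Hill fit, averaged over at least 3 independent experiments.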

[2] = physchem; details: pH 7.4, aqueous buffer, kinetic from dmso stock
Procedure: The kinetic solubility of test compounds in buffer was evaluated using a 96 well filtration plate format. A 500 μM assay solution in PBS, pH7.4 (or other assay buffer, as needed) was generated form a DMSO stock solution (up to 10 mM). Samples were transferred to a 96 Millipore MultiScreen HTS 96-well Filter plate (Cat# MSSLBPC10) mixed by shaking for 1.5 hours and processed by filtration prior to quantitation by HPLC-UV. Amiodarone and testosterone were used as reference controls.

Row | Compound | EC50 [1] | Emax [1] | solubility kinetic at 1.5 h [2]
1 | CC(C)OC(=O)C1=CN(C(=O)N2CCN(CC3CCN(C)CC3)CC2)CC(C)(C)c2c1[nH]c1ccccc21 [Example 29, 1-methylethyl 1,1-dimethyl-3-({4-[(1-methylpiperidin-4-yl)methyl]piperazin-1-yl}carbonyl)-1,2,3,6-tetrahydroazepino [4,5-b]indole-5-carboxylate] | 1000 to 10000 nM | 40 to 60% | > 10 µM
2 | CC(C)OC(=O)C1=CN(C(=O)N2CCN(C(C)C)CC2)CC(C)(C)c2c1[nH]c1ccccc21 [Example 30, 1-methylethyl 1,1-dimethyl-3-{[4-(1-methylethyl)piperazin-1-yl)carbonyl}-1,2,3,6-tetrahydroazepino[4,5-b]indole-5-carboxylate] | 100 to 1000 nM | > 100% | > 10 µM
3 | CCCN1CCN(C(=O)N2C=C(C(=O)OC(C)C)c3[nH]c4ccccc4c3C(C)(C)C2)CC1 [Example 31] | 100 to 1000 nM | > 100% | 1 to 10 µM (≈ 0.453 to 4.53 µg/mL)
4 | CCN(CC)C1CCN(C(=O)N2C=C(C(=O)OC(C)C)c3[nH]c4ccccc4c3C(C)(C)C2)CC1 [Example 33, 1-methylethyl 3-{[4-0 (diethylamino)piperidin-1-yl]carbonyl}-1,1-dimethyl-1,2,3,6-tetrahydroazepino[4,5-b]indole-5-carboxylate] | 1000 to 10000 nM | 60 to 80% | > 10 µM
5 | CC(C)CCC(=O)N1C=C(C(=O)OC(C)C)c2[nH]c3ccccc3c2C(C)(C)C1 [Example 34, 1-methylethyl 1,1-dimethyl-3-(4-methylpentanoyl)-1,2,3,6-tetrahydro azepino [4,5-b]indole-5-carboxylate] | 10 to 100 nM | > 100% | > 10 µM
6 | CC(C)OC(=O)C1=CN(C(=O)N2CCN(C)CC2)CC(C)(C)c2c1[nH]c1cc(F)ccc21 [Example 35, 1-methylethyl 8-fluoro-1,1-dimethyl-3-[(4-methylpiperazin-1-yl)carbonyl]-1,2,3,6-tetrahydroazepino[4,5-b]indole-5-carboxylate] | 10 to 100 nM | > 100% | > 10 µM
7 | CCN1CCN(C(=O)N2C=C(C(=O)OC(C)C)c3[nH]c4cc(F)ccc4c3C(C)(C)C2)CC1 [Example 36, 1-methylethyl 3-[(4-ethylpiperazin-1-yl)carbonyl]-8-fluoro-1,1-dimethyl-1,2,3,6-tetrahydroazepino[4,5-b]indole-5-carboxylate] | 10 to 100 nM | > 100% | > 10 µM
8 | CC(C)OC(=O)C1=CN(C(=O)N2CCN(CC(=O)N3CCCC3)CC2)CC(C)(C)c2c1[nH]c1ccccc21 [Example 37, 1-methylethyl 1,1-dimethyl-3-{[4-(2-oxo-2-pyrrolidin-1-ylethyl)piperazin-1-yl]carbonyl}-1,2,3,6-tetrahydroazepino [4,5-b]indole-5-carboxylate] | 100 to 1000 nM | > 100% | > 10 µM
9 | CCN(CC)CCN1CCN(C(=O)N2C=C(C(=O)OC(C)C)c3[nH]c4ccccc4c3C(C)(C)C2)CC1 [Example 38, 1-methylethyl 3-({4-[2-(diethylamino)ethyl]piperazin-1-yl}carbonyl)-1,1-dimethyl-1,2,3,6-tetrahydroazepino[4,5-b]indole-5-carboxylate] | 1000 to 10000 nM | 60 to 80% | > 10 µM
10 | CC(C)OC(=O)C1=CN(C(=O)N2CCCC(N(C)C)C2)CC(C)(C)c2c1[nH]c1ccccc21 (stereo not drawn) [Example 39, 1-methylethyl 3-{[3-(dimethylamino)piperidin-1-yl]carbonyl}-1,1-dimethyl-1,2,3,6-tetrahydroazepino[4,5-b]indole-5-carboxylate] | 100 to 1000 nM | > 100% | > 10 µM
11 | CC(C)OC(=O)C1=CN(C(=O)N2CCC(N3CCN(C)CC3)CC2)CC(C)(C)c2c1[nH]c1ccccc21 [Example 41, 1-methylethyl 1,1-dimethyl-3{[4-(4-methylpiperazin-1-yl)piperidin-1-yl]carbonyl}-1,2,3,6-tetrahydroazepino [4,5-b]indole-5-carboxylate] | 1000 to 10000 nM | 40 to 60% | > 10 µM
12 | CC(C)OC(=O)C1=CN(C(=O)N2C[C@@H]3C[C@H]2CN3C)CC(C)(C)c2c1[nH]c1ccccc21 [Example 42, 1-methylethyl 1,1-dimethyl-3-{[(1S,4S)-5-methyl-2,5-diazabicyclo[2.2.1]hept-2-yl]carbonyl}-1,2,3,6-tetrahydroazepino [4,5-b]indole-5-carboxylate] | 100 to 1000 nM | > 100% | > 10 µM
13 | CC(C)OC(=O)C1=CN(C(=O)N2CCCN(C)CC2)CC(C)(C)c2c1[nH]c1ccccc21 [Example 43, 1-methyl 1,1-dimethyl-3-[(4-methyl-1,4-diazepan-1-yl)carbonyl]-1,2,3,6-tetrahydroazepino[4,5-b]indole-5-carboxylate] | 100 to 1000 nM | > 100% | > 10 µM
14 | CC(C)OC(=O)C1=CN(C(=O)NC2CCCCC2)CC(C)(C)c2c1[nH]c1ccccc21 [Example 45, 1-methylethyl 3-[(cyclohexylamino)carbonyl]-1,1-dimethyl-1,2,3,6-tetrahydroazepino[4,5-b]indole-5-carboxylate] | 10 to 100 nM | > 100% | 1 to 10 µM (≈ 0.424 to 4.24 µg/mL)
15 | CC(C)OC(=O)C1=CN(C(=O)N2CCOCC2)CC(C)(C)c2c1[nH]c1ccccc21 [Example 47, 1-methylethyl 1,1-dimethyl-3-(morpholin-4-ylcarbonyl)-1,2,3,6-tetrahydrazepino[4,5-b]indole-5-carboxylate] | 10 to 100 nM | > 100% | > 10 µM
16 | CC(C)OC(=O)C1=CN(C(=O)N2CCCC(CN(C)C)C2)CC(C)(C)c2c1[nH]c1ccccc21 (stereo not drawn) [Example 48, 1-methylethyl 3-({3-[(dimethylamino)methyl]piperidin-1-yl}carbonyl)-1,1-dimethyl-1,2,3,6-tetrahydroazepino[4,5-b]indole-5-carboxylate] | 1000 to 10000 nM | > 100% | > 10 µM
17 | CC(C)OC(=O)C1=CN(C(=O)N2CCC[C@@H](CN(C)C)C2)CC(C)(C)c2c1[nH]c1ccccc21 [Example 50, 1-methylethyl 3-({(3S)-3-[(dimethylamino)methyl]piperidin-1-yl}carbonyl)-1,1-dimethyl-1,2,3,6-tetrahydroazepino[4,5-b]indole-5-carboxylate] | 1000 to 10000 nM | 60 to 80% | > 10 µM
18 | CC(C)OC(=O)C1=CN(C(=O)N2CCC[C@H](CN(C)C)C2)CC(C)(C)c2c1[nH]c1ccccc21 [Example 51, 1-methylethyl 3-({(3R)-3-[(dimethylamino)methyl]piperidin-1-yl}carbonyl)-1,1-dimethyl-1,2,3,6-tetrahydroazepino[4,5-b]indole-5-carboxylate] | 1000 to 10000 nM | > 100% | > 10 µM
19 | CC(C)OC(=O)C1=CN(C(=O)N2CCCC(CN3CCOCC3)C2)CC(C)(C)c2c1[nH]c1ccccc21 (stereo not drawn) [Example 53, 1-methylethyl 1,1-dimethyl-3{[3-(morpholin-4-ylmethyl)piperidin-1-yl]carbonyl}-1,2,3,6-tetrahydroazepino [4,5-b]indole-5-carboxylate] | 100 to 1000 nM | > 100% | > 10 µM
20 | CC(C)OC(=O)C1=CN(C(=O)N[C@H]2CCCNC2)CC(C)(C)c2c1[nH]c1ccccc21 [Example 54, 1-mcthylethyl 1,1-dimethyl-3-{[(3S)-piperidin-3-ylamino]carbonyl}-1,2,3,6-tetrahydroazepino[4,5-b]indole-5-carboxylate] | 1000 to 10000 nM | 40 to 60% | > 10 µM
21 | CC(C)OC(=O)C1=CN(C(=O)NC2CCCNC2)CC(C)(C)c2c1[nH]c1ccccc21 (stereo not drawn) [Example 56, 1-methylethyl 1,1-dimethyl-3-[(piperidin-3-ylamino)carbonyl]-1,2,3,6-tetrahydro azepino[4,5-b]indole-5-carboxylate] | 1000 to 10000 nM | < 40% | > 10 µM
